Earlier results as cited in US20230173142A1, “BALLISTIC DELIVERY TO MULTILAYERED TISSUES AND RELATED PARTICLES, COMPOSITIONS, METHODS AND SYSTEMS” (CALIFORNIA INSTITUTE OF TECHNOLOGY, priority 2021, published 2023).
Entries after “also recorded” stand apart in the source; their conditions may differ. Like-named read-outs stand apart in the source and are kept apart here.

Legend:
ear hole punch injury = conditions: multiple peripheral subcutaneous injections of hydrogel over a 10-day period; Swiss Webster mice
rabbit cornea = rabbit cornea treated topically
lysyl oxidase (LOX) = molecular target: T1, lysyl oxidase (LOX) (Homo sapiens, UniProt P28300); conditions: increasing [Cu^2+]
T1 sequence (P28300 169-417): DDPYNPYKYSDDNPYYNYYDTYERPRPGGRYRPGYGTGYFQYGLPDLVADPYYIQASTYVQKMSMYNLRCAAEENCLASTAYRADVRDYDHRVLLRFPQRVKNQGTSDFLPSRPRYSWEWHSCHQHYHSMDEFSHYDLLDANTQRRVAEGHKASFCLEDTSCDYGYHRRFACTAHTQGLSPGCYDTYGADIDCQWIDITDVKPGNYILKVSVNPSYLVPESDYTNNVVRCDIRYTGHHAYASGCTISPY

rabbit corneas = rabbit corneas ex vivo

O=C(O)c1c[nH]c2c(ccc3cccnc32)c1=O [1,4-DPCA, 1,4-dihydrophenonthrolin-4-one-3-carboxylic acid]
wound healing after ear hole punch injury (ear hole punch injury): regenerative wound healing

[Cu+2] [Copper]
crosslinking as measured by LNL (rabbit cornea): increase crosslinking
LOX activity (lysyl oxidase (LOX)): restore LOX activity
biomechanical strength (rabbit corneas): increase biomechanical strength
biomechanical strength (human cadaver corneas): increase biomechanical strength

EGF: growth factor loaded in carrier material
Effect (wound healing; Material: Nanoparticle): Accelerated migration of inflammatory cells during the inflammation; also recorded: Enhanced wound closure, collagen deposition, angiogenesis, and

SDF-1: stromal cell-derived factor-1
Effect (wound healing; Material: Hydrogel): Accelerated wound healing and increased vascularization

VEGF
Effect (wound healing; Material: Hydrogel): Enhanced wound healing, granulation, collagen deposition,
Effect (wound healing; Material: Lyotropic liquid crystal): Enhanced vascularization

aFGF: growth factor/cytokine loaded in hydrogel
Effect (wound healing; Material: Hydrogel): Accelerated cell proliferation, neo-vascularization, and wound healing

bFGF: growth factor/cytokine loaded in carrier material
Effect (wound healing; Material: Concentrate): Enhanced wound closure, angiogenesis, collagen deposition,
Effect (wound healing; Material: Hydrogel): Enhanced wound closure, collagen deposition, vascularization,; also recorded: Enhanced wound closure, organized collageno depostion,; also recorded: Enhanced the formation of granulation tissue, increased angiogenesis,
